Measurements taken from patent US20030224942A1, “Alkylamino-1,3,5-triazines, processes for their preparation and their use as herbicides and plant growth regulators” (priority 2001, published 2003).

Tests used:
[1] = test system: Chenopodium spp., Papaver spp., Polygonum spp., Veronica spp. or Viola spp.; assay: Post-emergence effect on weeds (greenhouse pot test, visual scoring); assay type: in vivo, monocotyledonous and dicotyledonous weeds; settings: treated at three-leaf stage; visual scoring after about 3 to 4 weeks; application rate of 0.5 kg and less of active substance per hectare
[2] = test system: Cyperus spp., Echinochloa spp., Digitaria spp., Sagitaria spp. and Scirpus spp.; assay: Action on harmful plants in rice (paddy rice conditions, visual scoring); assay type: in vivo, typical rice weeds (gramineous and broad-leaved); settings: applied into the dammed water, visual scoring about three weeks after application
From the text: Transplanted and sown rice and also typical rice weeds (gramineous and broad-leaved) are cultivated in closed plastic pots in a greenhouse to the three-leaf stage (Echinochloa crus-galli 1.5-leaf) under paddy rice conditions (dammed height of water: 2-3 cm). This is followed by treatment with the compounds according to the invention. […] After this treatment, the test plants are set up in a greenhouse under optimum growth conditions and are maintained in this way throughout the test period.

SMILES	herbicidal activity post-emergence against harmful plants [1]	herbicidal activity against harmful plants which are typical for rice crops [2]
CC(C)c1nc(N)nc(NCc2ccc(C(F)=C(F)F)cc2)n1 [Product P11.1568]	very good herbicidal activity	very good herbicidal activity
CCc1nc(N)nc(NC(C)c2cccc(C3CC3)c2)n1 (stereo not shown) [Product P7.1603]	very good herbicidal activity	very good herbicidal activity
CC(Nc1nc(N)nc(C(C)(C)F)n1)c1ccc(C2CC2)cc1 (stereo not shown) [Product P17.1604]	very good herbicidal activity	very good herbicidal activity
CC#Cc1cccc(C(Nc2nc(N)nc(CC)n2)C2CC2)c1 (stereo not shown) [Product P9.1582]	very good herbicidal activity	very good herbicidal activity
CC#Cc1cc(C(Nc2nc(N)nc(C(C)C)n2)C2CC2)ccc1F (stereo not shown) [Product P14.384]	very good herbicidal activity	very good herbicidal activity
CCc1nc(N)nc(NCc2ccc(C(F)=C(F)F)cc2)n1 [Product P6.1568]	very good herbicidal activity	very good herbicidal activity
C#Cc1ccc(C(C)Nc2nc(C)nc(N)n2)cc1 (stereo not shown) [Product P2.1580]	very good herbicidal activity	very good herbicidal activity
CC(C)c1nc(N)nc(NCc2cccc(C3CC3)c2)n1 [Product P11.1603]	very good herbicidal activity	very good herbicidal activity
C#Cc1cccc(C(C)Nc2nc(N)nc(C(C)(C)F)n2)c1 (stereo not shown) [Product P17.1579]	very good herbicidal activity	very good herbicidal activity
CC(C)c1nc(N)nc(NC(C)c2cc(F)c(C3CC3)c(F)c2)n1 (stereo not shown) [Product P12.960]	very good herbicidal activity	very good herbicidal activity
C#Cc1c(F)cc(C(C)Nc2nc(N)nc(C(F)CC)n2)cc1F (stereo not shown) [Product P27.352]	very good herbicidal activity	very good herbicidal activity
CC#Cc1cccc(CNc2nc(N)nc(C(C)(C)F)n2)c1 [Product P16.1582]	very good herbicidal activity	very good herbicidal activity
C=C=Cc1c(F)cc(C(C)Nc2nc(N)nc(C(C)F)n2)cc1F (stereo not shown) [Product P22.656]	very good herbicidal activity	very good herbicidal activity
C#Cc1c(C)cc(C(C)Nc2nc(N)nc(C(C)F)n2)cc1C (stereo not shown) [Product P22.348]	very good herbicidal activity	very good herbicidal activity
CC(F)c1nc(N)nc(NC(C)c2cccc(C3CC3)c2)n1 (stereo not shown) [Product P22.1603]	very good herbicidal activity	very good herbicidal activity
C#Cc1cccc(CNc2nc(N)nc(C(C)(C)F)n2)c1 [Product P16.1579]	very good herbicidal activity	very good herbicidal activity
C#Cc1c(F)cc(C(Nc2nc(N)nc(C(F)CC)n2)C2CC2)cc1F (stereo not shown) [Product P29.352]	very good herbicidal activity	very good herbicidal activity
